Assay results: ChEMBL document CHEMBL4152326 (2018)
The source made the active and inactive calls. No cut-off for these calls is given here.

system: Pseudomonas aeruginosa; experiment: Antimicrobial activity against Pseudomonas aeruginosa SR24 in presence of human apo-transferrin by broth microdilution method; type: functional

Structure (SMILES) | MIC
CC(C)(O/N=C(\C(=O)N[C@@H]1C(=O)N2C(C(=O)[O-])=C(C[N+]3(CCNC(=O)c4cccc(O)c4O)CCCC3)CS[C@H]12)c1csc(N)n1)C(=O)O | 0.063 µg/mL
CC(C)(O/N=C(\C(=O)N[C@@H]1C(=O)N2C(C(=O)[O-])=C(C[n+]3ccc(NC(=O)c4ccc(O)c(O)c4Cl)cc3)CS[C@H]12)c1csc(N)n1)C(=O)O | 0.063 µg/mL
CC(C)(O/N=C(\C(=O)N[C@@H]1C(=O)N2C(C(=O)[O-])=C(C[N+]3(CCC(=O)Nc4ccc(O)c(O)c4Cl)CCCC3)CS[C@H]12)c1csc(N)n1)C(=O)O | 0.25 µg/mL
CC(C)(O/N=C(\C(=O)N[C@@H]1C(=O)N2C(C(=O)[O-])=C(C[N@+]3(C)[C@@H]4CC[C@H]3C[C@@H](NC(=O)c3ccc(O)c(O)c3Cl)C4)CS[C@H]12)c1csc(N)n1)C(=O)O | 0.25 µg/mL
CO/N=C(\C(=O)N[C@@H]1C(=O)N2C(C(=O)[O-])=C(C[N+]3(C)CCCC3)CS[C@H]12)c1csc(N)n1 | 0.5 µg/mL

system: Pseudomonas aeruginosa; experiment: Antimicrobial activity against AmpC overproducing Pseudomonas aeruginosa SR24-12 in presence of human apo-transferrin by broth microdilution method; type: functional

Structure (SMILES) | MIC
CC(C)(O/N=C(\C(=O)N[C@@H]1C(=O)N2C(C(=O)[O-])=C(C[N+]3(CCNC(=O)c4cccc(O)c4O)CCCC3)CS[C@H]12)c1csc(N)n1)C(=O)O | 0.25 µg/mL
CC(C)(O/N=C(\C(=O)N[C@@H]1C(=O)N2C(C(=O)[O-])=C(C[n+]3ccc(NC(=O)c4ccc(O)c(O)c4Cl)cc3)CS[C@H]12)c1csc(N)n1)C(=O)O | 0.25 µg/mL
CC(C)(O/N=C(\C(=O)N[C@@H]1C(=O)N2C(C(=O)[O-])=C(C[N+]3(CCC(=O)Nc4ccc(O)c(O)c4Cl)CCCC3)CS[C@H]12)c1csc(N)n1)C(=O)O | 0.5 µg/mL
CC(C)(O/N=C(\C(=O)N[C@@H]1C(=O)N2C(C(=O)[O-])=C(C[N@+]3(C)[C@@H]4CC[C@H]3C[C@@H](NC(=O)c3ccc(O)c(O)c3Cl)C4)CS[C@H]12)c1csc(N)n1)C(=O)O | 0.5 µg/mL
CO/N=C(\C(=O)N[C@@H]1C(=O)N2C(C(=O)[O-])=C(C[N+]3(C)CCCC3)CS[C@H]12)c1csc(N)n1 | 16 µg/mL

system: Pseudomonas aeruginosa; experiment: Antimicrobial activity against IMP-1 producing Pseudomonas aeruginosa SR27001 in presence of human apo-transferrin by broth microdilution method; type: functional

Structure (SMILES) | MIC
CC(C)(O/N=C(\C(=O)N[C@@H]1C(=O)N2C(C(=O)[O-])=C(C[N+]3(CCNC(=O)c4cccc(O)c4O)CCCC3)CS[C@H]12)c1csc(N)n1)C(=O)O | 4 µg/mL
CC(C)(O/N=C(\C(=O)N[C@@H]1C(=O)N2C(C(=O)[O-])=C(C[n+]3ccc(NC(=O)c4ccc(O)c(O)c4Cl)cc3)CS[C@H]12)c1csc(N)n1)C(=O)O | 2 µg/mL
CC(C)(O/N=C(\C(=O)N[C@@H]1C(=O)N2C(C(=O)[O-])=C(C[N+]3(CCC(=O)Nc4ccc(O)c(O)c4Cl)CCCC3)CS[C@H]12)c1csc(N)n1)C(=O)O | 2 µg/mL
CC(C)(O/N=C(\C(=O)N[C@@H]1C(=O)N2C(C(=O)[O-])=C(C[N@+]3(C)[C@@H]4CC[C@H]3C[C@@H](NC(=O)c3ccc(O)c(O)c3Cl)C4)CS[C@H]12)c1csc(N)n1)C(=O)O | 0.5 µg/mL
CO/N=C(\C(=O)N[C@@H]1C(=O)N2C(C(=O)[O-])=C(C[N+]3(C)CCCC3)CS[C@H]12)c1csc(N)n1 | > 64 µg/mL

system: Pseudomonas aeruginosa; experiment: Antimicrobial activity against VIM-2 producing Pseudomonas aeruginosa SBRKM-28 in presence of human apo-transferrin by broth microdilution method; type: functional

Structure (SMILES) | MIC
CC(C)(O/N=C(\C(=O)N[C@@H]1C(=O)N2C(C(=O)[O-])=C(C[n+]3ccc(NC(=O)c4ccc(O)c(O)c4Cl)cc3)CS[C@H]12)c1csc(N)n1)C(=O)O | 0.125 µg/mL
CC(C)(O/N=C(\C(=O)N[C@@H]1C(=O)N2C(C(=O)[O-])=C(C[N+]3(CCC(=O)Nc4ccc(O)c(O)c4Cl)CCCC3)CS[C@H]12)c1csc(N)n1)C(=O)O | 0.25 µg/mL
CC(C)(O/N=C(\C(=O)N[C@@H]1C(=O)N2C(C(=O)[O-])=C(C[N@+]3(C)[C@@H]4CC[C@H]3C[C@@H](NC(=O)c3ccc(O)c(O)c3Cl)C4)CS[C@H]12)c1csc(N)n1)C(=O)O | 0.063 µg/mL
CO/N=C(\C(=O)N[C@@H]1C(=O)N2C(C(=O)[O-])=C(C[N+]3(C)CCCC3)CS[C@H]12)c1csc(N)n1 | 16 µg/mL

system: Pseudomonas aeruginosa; experiment: Antimicrobial activity against IMP-1 producing Pseudomonas aeruginosa SR27060 in presence of human apo-transferrin by broth microdilution method; type: functional

Structure (SMILES) | MIC
CC(C)(O/N=C(\C(=O)N[C@@H]1C(=O)N2C(C(=O)[O-])=C(C[N+]3(CCNC(=O)c4cccc(O)c4O)CCCC3)CS[C@H]12)c1csc(N)n1)C(=O)O | 8 µg/mL
CC(C)(O/N=C(\C(=O)N[C@@H]1C(=O)N2C(C(=O)[O-])=C(C[n+]3ccc(NC(=O)c4ccc(O)c(O)c4Cl)cc3)CS[C@H]12)c1csc(N)n1)C(=O)O | 2 µg/mL
CC(C)(O/N=C(\C(=O)N[C@@H]1C(=O)N2C(C(=O)[O-])=C(C[N+]3(CCC(=O)Nc4ccc(O)c(O)c4Cl)CCCC3)CS[C@H]12)c1csc(N)n1)C(=O)O | 2 µg/mL
CC(C)(O/N=C(\C(=O)N[C@@H]1C(=O)N2C(C(=O)[O-])=C(C[N@+]3(C)[C@@H]4CC[C@H]3C[C@@H](NC(=O)c3ccc(O)c(O)c3Cl)C4)CS[C@H]12)c1csc(N)n1)C(=O)O | 1 µg/mL
CO/N=C(\C(=O)N[C@@H]1C(=O)N2C(C(=O)[O-])=C(C[N+]3(C)CCCC3)CS[C@H]12)c1csc(N)n1 | > 64 µg/mL

system: Pseudomonas aeruginosa; experiment: Antimicrobial activity against Pseudomonas aeruginosa 27060deltaR1 harboring deletion of R1 plasmid in presence of human apo-transferrin by broth microdilution method; type: functional

Structure (SMILES) | MIC
CC(C)(O/N=C(\C(=O)N[C@@H]1C(=O)N2C(C(=O)[O-])=C(C[N+]3(CCNC(=O)c4cccc(O)c4O)CCCC3)CS[C@H]12)c1csc(N)n1)C(=O)O | 0.5 µg/mL
CC(C)(O/N=C(\C(=O)N[C@@H]1C(=O)N2C(C(=O)[O-])=C(C[n+]3ccc(NC(=O)c4ccc(O)c(O)c4Cl)cc3)CS[C@H]12)c1csc(N)n1)C(=O)O | 0.5 µg/mL
CC(C)(O/N=C(\C(=O)N[C@@H]1C(=O)N2C(C(=O)[O-])=C(C[N+]3(CCC(=O)Nc4ccc(O)c(O)c4Cl)CCCC3)CS[C@H]12)c1csc(N)n1)C(=O)O | 1 µg/mL
CC(C)(O/N=C(\C(=O)N[C@@H]1C(=O)N2C(C(=O)[O-])=C(C[N@+]3(C)[C@@H]4CC[C@H]3C[C@@H](NC(=O)c3ccc(O)c(O)c3Cl)C4)CS[C@H]12)c1csc(N)n1)C(=O)O | 0.5 µg/mL
CO/N=C(\C(=O)N[C@@H]1C(=O)N2C(C(=O)[O-])=C(C[N+]3(C)CCCC3)CS[C@H]12)c1csc(N)n1 | 16 µg/mL

system: Stenotrophomonas maltophilia; experiment: Antimicrobial activity against L-1 producing Stenotrophomonas maltophilia SR21970 in presence of human apo-transferrin by broth microdilution method; type: functional

Structure (SMILES) | MIC
CC(C)(O/N=C(\C(=O)N[C@@H]1C(=O)N2C(C(=O)[O-])=C(C[N+]3(CCNC(=O)c4cccc(O)c4O)CCCC3)CS[C@H]12)c1csc(N)n1)C(=O)O | 1 µg/mL
CC(C)(O/N=C(\C(=O)N[C@@H]1C(=O)N2C(C(=O)[O-])=C(C[n+]3ccc(NC(=O)c4ccc(O)c(O)c4Cl)cc3)CS[C@H]12)c1csc(N)n1)C(=O)O | 1 µg/mL
CC(C)(O/N=C(\C(=O)N[C@@H]1C(=O)N2C(C(=O)[O-])=C(C[N+]3(CCC(=O)Nc4ccc(O)c(O)c4Cl)CCCC3)CS[C@H]12)c1csc(N)n1)C(=O)O | 1 µg/mL
CC(C)(O/N=C(\C(=O)N[C@@H]1C(=O)N2C(C(=O)[O-])=C(C[N@+]3(C)[C@@H]4CC[C@H]3C[C@@H](NC(=O)c3ccc(O)c(O)c3Cl)C4)CS[C@H]12)c1csc(N)n1)C(=O)O | 1 µg/mL
CO/N=C(\C(=O)N[C@@H]1C(=O)N2C(C(=O)[O-])=C(C[N+]3(C)CCCC3)CS[C@H]12)c1csc(N)n1 | 64 µg/mL

system: Acinetobacter baumannii; experiment: Antimicrobial activity against OXA-23/OXA-58 producing Acinetobacter baumannii SR27323 in presence of human apo-transferrin by broth microdilution method; type: functional

Structure (SMILES) | MIC
CC(C)(O/N=C(\C(=O)N[C@@H]1C(=O)N2C(C(=O)[O-])=C(C[N+]3(CCNC(=O)c4cccc(O)c4O)CCCC3)CS[C@H]12)c1csc(N)n1)C(=O)O | 1 µg/mL
CC(C)(O/N=C(\C(=O)N[C@@H]1C(=O)N2C(C(=O)[O-])=C(C[n+]3ccc(NC(=O)c4ccc(O)c(O)c4Cl)cc3)CS[C@H]12)c1csc(N)n1)C(=O)O | 2 µg/mL
CC(C)(O/N=C(\C(=O)N[C@@H]1C(=O)N2C(C(=O)[O-])=C(C[N+]3(CCC(=O)Nc4ccc(O)c(O)c4Cl)CCCC3)CS[C@H]12)c1csc(N)n1)C(=O)O | 2 µg/mL
CC(C)(O/N=C(\C(=O)N[C@@H]1C(=O)N2C(C(=O)[O-])=C(C[N@+]3(C)[C@@H]4CC[C@H]3C[C@@H](NC(=O)c3ccc(O)c(O)c3Cl)C4)CS[C@H]12)c1csc(N)n1)C(=O)O | 1 µg/mL
CO/N=C(\C(=O)N[C@@H]1C(=O)N2C(C(=O)[O-])=C(C[N+]3(C)CCCC3)CS[C@H]12)c1csc(N)n1 | 16 µg/mL

system: Klebsiella pneumoniae; experiment: Antimicrobial activity against KPC-2 producing Klebsiella pneumoniae ATCC BAA-1705 in presence of human apo-transferrin by broth microdilution method; type: functional

Structure (SMILES) | MIC
CC(C)(O/N=C(\C(=O)N[C@@H]1C(=O)N2C(C(=O)[O-])=C(C[N+]3(CCNC(=O)c4cccc(O)c4O)CCCC3)CS[C@H]12)c1csc(N)n1)C(=O)O | 0.063 µg/mL
CC(C)(O/N=C(\C(=O)N[C@@H]1C(=O)N2C(C(=O)[O-])=C(C[n+]3ccc(NC(=O)c4ccc(O)c(O)c4Cl)cc3)CS[C@H]12)c1csc(N)n1)C(=O)O | 0.25 µg/mL
CC(C)(O/N=C(\C(=O)N[C@@H]1C(=O)N2C(C(=O)[O-])=C(C[N+]3(CCC(=O)Nc4ccc(O)c(O)c4Cl)CCCC3)CS[C@H]12)c1csc(N)n1)C(=O)O | 0.25 µg/mL
CC(C)(O/N=C(\C(=O)N[C@@H]1C(=O)N2C(C(=O)[O-])=C(C[N@+]3(C)[C@@H]4CC[C@H]3C[C@@H](NC(=O)c3ccc(O)c(O)c3Cl)C4)CS[C@H]12)c1csc(N)n1)C(=O)O | 0.063 µg/mL
CO/N=C(\C(=O)N[C@@H]1C(=O)N2C(C(=O)[O-])=C(C[N+]3(C)CCCC3)CS[C@H]12)c1csc(N)n1 | 32 µg/mL

system: Escherichia coli; experiment: Antimicrobial activity against SHV-4 producing Escherichia coli ATCC BAA-200 in presence of human apo-transferrin by broth microdilution method; type: functional

Structure (SMILES) | MIC
CC(C)(O/N=C(\C(=O)N[C@@H]1C(=O)N2C(C(=O)[O-])=C(C[N+]3(CCNC(=O)c4cccc(O)c4O)CCCC3)CS[C@H]12)c1csc(N)n1)C(=O)O | 2 µg/mL
CC(C)(O/N=C(\C(=O)N[C@@H]1C(=O)N2C(C(=O)[O-])=C(C[n+]3ccc(NC(=O)c4ccc(O)c(O)c4Cl)cc3)CS[C@H]12)c1csc(N)n1)C(=O)O | 2 µg/mL
CC(C)(O/N=C(\C(=O)N[C@@H]1C(=O)N2C(C(=O)[O-])=C(C[N+]3(CCC(=O)Nc4ccc(O)c(O)c4Cl)CCCC3)CS[C@H]12)c1csc(N)n1)C(=O)O | 2 µg/mL
CC(C)(O/N=C(\C(=O)N[C@@H]1C(=O)N2C(C(=O)[O-])=C(C[N@+]3(C)[C@@H]4CC[C@H]3C[C@@H](NC(=O)c3ccc(O)c(O)c3Cl)C4)CS[C@H]12)c1csc(N)n1)C(=O)O | 2 µg/mL
CO/N=C(\C(=O)N[C@@H]1C(=O)N2C(C(=O)[O-])=C(C[N+]3(C)CCCC3)CS[C@H]12)c1csc(N)n1 | 4 µg/mL

system: Pseudomonas aeruginosa; experiment: Antibacterial activity against Pseudomonas aeruginosa SR27001 infected in Jcl:ICR mouse systemic infection model assessed as increase in mouse survival rate administered iv 1 to 5 hrs post infection measured over 7 days; type: functional

Structure (SMILES) | ED50
CC(C)(O/N=C(\C(=O)N[C@@H]1C(=O)N2C(C(=O)[O-])=C(C[N@+]3(C)[C@@H]4CC[C@H]3C[C@@H](NC(=O)c3ccc(O)c(O)c3Cl)C4)CS[C@H]12)c1csc(N)n1)C(=O)O | 10.5 mg/kg
CO/N=C(\C(=O)N[C@@H]1C(=O)N2C(C(=O)[O-])=C(C[N+]3(C)CCCC3)CS[C@H]12)c1csc(N)n1 | > 100 mg/kg

system: not listed separately; experiment: Iron chelating activity in presence of cetyltrimethylammonium bromide at pH 5.5 by chromeazurol B dye based spectrophotometric method

Structure (SMILES) | Activity
CC(C)(O/N=C(\C(=O)N[C@@H]1C(=O)N2C(C(=O)[O-])=C(C[N+]3(CCNC(=O)c4cccc(O)c4O)CCCC3)CS[C@H]12)c1csc(N)n1)C(=O)O | Active
